Test results taken from patent US20090233975A1, “Hair resiliency/body improver and hair cosmetic” (priority 2005, published 2009).

Tested on: KAP5.1 gene
Assay: KAP5.1 reporter assay (dual luciferase, pGL3-KAP5.1 in IORS cells)
Assay type: cell-based, human
Conditions: overnight culture, negative control K-SFM(−) = 100
Description: A DNA fragment of about 15 kb containing KAP5.1 gene and KAP5.2 gene was amplified by PCR using an NM-F1 primer (SEQ ID NO. 6), in which the recognition sites of restriction endonuclease NotI and MluI were added to the 5′-terminal thereof, and an R2 primer (SEQ ID NO. 7), and using commercially available human genomic DNA (obtained from Promega) as the template (FIG. 1-A).
The amplified DNA fragment was double-digested with restriction endonucleases MluI and NheI, and a DNA fragment of about 4.9 kb was recovered following separation by agarose gel electrophoresis. This DNA fragment was cloned between the MluI and NheI sites of reporter vector pGL-3basic (obtained from Promega) having a gene that encodes firefly luciferase (FIG. 1-B). Reporter plasmid pGL-3-KAP5.1 containing the 5′ upstream region (SEQ ID NO. 8) of KAP5.1 was then constructed by subcloning [Step 1: subcloning of SacI/NcoI fragment (154 bp, FIG. 2) to pGL-3basic; Step 2: insertion of ScaI fragment (about 4.0 kbp, FIG. 2) into resulting plasmid] (FIG. 2).
8×10^5 immortalized outer root sheath (IORS) cells (obtained in accordance with Japanese Unexamined Patent Publication (Kokai) No. 2000-89) were seeded into a 75 cm^2 flask and cultured for 6 days under conditions of 37° C. and 5% CO2. Keratinocyte-SFM medium (Gibco) was used as the medium.
Day 1: Plasmid DNA Transfection (transient). The cultured IORS cells were dually transformed with the previously constructed reporter plasmid pGL3-KAP5.1 (firefly luciferase) and commercially available internal standard plasmid pRL-TK (renilla luciferase) in accordance with the manual provided with Effectene Transfection Reagent (Qiagen).
Day 2: The transformed cells were re-seeded into in a 24-well multiwell plate at 10 to 16×10^4 cells per well and cultured overnight under conditions of 37° C. and 5% CO2.
Day 3: The medium in each well was replaced with a basal medium in which each drug was dissolved followed by culturing overnight under conditions of 37° C. and 5% CO2.
Day 4: Assay. Luciferase activity was assayed for each well using the Dual-Luciferase Reporter Assay System (Promega) in accordance with the manual provided by the manufacturer. The AutoLumat LB953 (Berthold) was used for the luminometer.
An assay was carried out under the same conditions with the exception of not containing drug as a negative control [K-SFM(−)]. The effect of increasing gene expression are represented in the form of the rate of increase (ratio based on a value of 100 for the negative control).

Row | SMILES | Rate of Increase (KAP5.1 gene expression, ratio based on a value of 100 for the negative control) (10 ppm drug) | Rate of Increase (KAP5.1 gene expression, ratio based on a value of 100 for the negative control) (100 ppm drug) | Rate of Increase (KAP5.1 gene expression, ratio based on a value of 100 for the negative control) (300 ppm drug)
1 | CC(=O)Nc1nc(C)cs1 [2-acetamido-4-methylthiazole] | 110 | 150 | –
2 | CC(=O)Nc1nccs1 [2-acetamidothiazole] | 130 | 180 | –
3 | Nc1nccs1 [2-aminothiazole] | 110 | 140 | –
4 | CC(=O)Nc1cc(C)on1 [3-acetamido-5-methylisoxazole] | 100 | 110 | 125
5 | Cc1cc(N)no1 [3-amino-5-methylisoxazole] | 120 | 140 | 160
